Assay results: patent US20250000881A1, “TREATMENT OF TREATMENT RESISTANT […] PSILOCYBIN” (COMPASS […], priority 2021, published 2025)

Tested on: adult subjects with TRD
Assay: Phase 2b trial in TRD: Digit Symbol Substitution Test (DSST)
Type: in vivo, human
Conditions: 25 mg vs 1 mg groups, week 3
Method: Other objectives were to evaluate the effects of psilocybin on quality of life and wellbeing, functioning and associated disability, cognitive function, and anxiety compared to 1 mg psilocybin on: • (a) Quality of life in subject EuroQoL (EQ)-5 dimension-3 level scale (EQ-5D-3L) score change from Baseline to week 3. This will also be assessed at week 12. This assessment was not mandatory. • (b) Quality of life in caregiver EQ-5D-3L score change from Baseline to week 3. This was assessed at week 12. • (c) Functioning and associated disability in the Sheehan Disability Scale (SDS) score change from Baseline to week 3. This was also assessed at week 12. • (d) Cognitive function as measured by the Digit Symbol Substitution Test (DSST) score change from baseline to week 3. This was assessed at day 1 and week 12. • (e) Level of anxiety as measured using the change in Generalised Anxiety Disorder 7 item Scale (GAD-7) total score change from baseline to week 3. This was assessed at week 12. • (f) Subject determined level of depression as measured using the change in Quick Inventory of Depressive Symptomatology Self-Rated (QIDS-SR-16) total score from Baseline to week 3. […] This was assessed at week 12. • (h) To evaluate the impact of different psilocybin doses on real life functional activity estimated from passive data streams collected on a mobile app on subjects' mobile phones. […]

## CN(C)CCc1c[nH]c2cccc(OP(=O)(O)O)c12 [COMP360, psilocybin]
  DSST least squares mean treatment difference: 1.32
